In US11884961B2, “DNA-glycan conjugates and methods of use” (GEORGIA STATE UNIVERSITY RESEARCH FOUNDATION, INC., priority 2017, dated 2024):

What was measured:
VK9 antibody = assay: Multiplex detection of DEGL against VK9 antibody by NGS; type: binding, mouse
Method: Next, we wanted to translate the results to more promising NGS based parallel screening. Initially we tested the different concentrations of DEGL with different concentrations of VK9 antibody using the PCR and qPCR assays. We incubated 1 uM, 500 nM, 100 nM and 10 nM samples with 0.5 μL, 1 μL, and 2 μL of the VK9 antibody (0.5 μg/μL), and unbound glycans were washed out after precipitating the bound glycan-VK9 complex on protein A/G beads. Each assay was compared to the same amount of DEGL with no VK9 negative control. Then, washed beads were used as the template for the NGS analysis. Briefly, beads were diluted to 20 μL, and from this, 2 μL was used for the initial PCR amplification (18 cycles). PCR products were then purified using AMpure beads (Beckman Coulter) according to the manufacturer's protocol and used for the NGS fusion PCR to incorporate the index codes and ion-torrent NGS adapters. Now about 150 bp DNA codes, it was again purified using AMpure beads, and all barcoded samples were run through an Agilent Bioanalyzer for quality control. Samples were then pooled in equimolar concentration and adjusted to the desired 26 pM for the NGS, analyzed using ion-PGM semiconductor sequencer. Data were analyzed using ‘FASTAPTAMER’ software,[39] and an in house developed program. […]

[1] = test system: VK9, a mouse IgG anti-Globo H monoclonal antibody; assay: ELISA of DEGL (glycan-DNA codes coated with Pierce DNA coating solution) against VK9; type: binding; settings: glycan-DNA conjugates coated directly onto plastic; OD450
From the text: (§1) Initially we validated the selected system with the conventional ELISA to confirm the antibody binding capacity and specificity of the glycans. Since sugars have low binding affinity for unmodified plastic surfaces, the binding protein, streptavidin, was used to capture biotinylated sugars. In another experiment we also tested DEGL using ELISA to see the effect of different presentation of glycans. For this assay, we coated the DEGL onto plastic surfaces directly. Both naked glycan and DEGL was tested against VK9, a mouse IgG anti-Globo H monoclonal antibody. […] We rationalize this difference in pattern to the different presentation of glycan epitope, all of the four glycans have the same terminal epitope of Fuc a1-2 Gal(b1-3 GalNAc), which is recognized by VK9 antibodies,[38] but a long DNA tag on the DEGL will give more space to the glycan antigens binding with the antibody, while normal ELISA would block the binding of the short glycans of Bb3 and Bb2. […]
(§2) A 96-well plate (Costar® Polystyrene High Binding Plate 3590) was coated with […] of 10 ug/ml Streptavidin (Sigma) in 0.01 M PBS (pH 7.4) at 4° C. overnight. […] The plate was then read at OD450 with a plate reader (PerkinElmer®, 2030 Multilabel Reader Victor®). The result was calculated by minus OD450 value of control (no antibody).

[2] = test system: VK9, a mouse IgG anti-Globo H monoclonal antibody; assay: ELISA of biotinylated glycans captured on streptavidin against VK9; type: binding; settings: biotinylated sugars captured on streptavidin; OD450
From the text: as §1, §2

## Globo-H [GbH]
VK9 antibody; biotin tagged secondary antibody, magnetic streptavidin beads, NGS
  relative enrichment in comparison with the no VK9 negative control: enriched
VK9 antibody; modified method with control sequence added after selection, Globo-H series+A and B glycan DEGL
  enrichment (NGS): selective enrichment
[1]
  ELISA binding of VK9: strong binding
[2]
  ELISA binding intensity of VK9: very high binding intensities
